The structures appear in SMILES notation.

For this test, the target named is 4-hydroxyphenylpyruvate dioxygenase (Homo sapiens, UniProt P32754). The test can be described thus: Inhibition of human recombinant His-tagged HPPD expressed in Escherichia coli BL21(DE3) by UV/visible plate reader analysis.
Chain of 4-hydroxyphenylpyruvate dioxygenase (P32754 whole entry): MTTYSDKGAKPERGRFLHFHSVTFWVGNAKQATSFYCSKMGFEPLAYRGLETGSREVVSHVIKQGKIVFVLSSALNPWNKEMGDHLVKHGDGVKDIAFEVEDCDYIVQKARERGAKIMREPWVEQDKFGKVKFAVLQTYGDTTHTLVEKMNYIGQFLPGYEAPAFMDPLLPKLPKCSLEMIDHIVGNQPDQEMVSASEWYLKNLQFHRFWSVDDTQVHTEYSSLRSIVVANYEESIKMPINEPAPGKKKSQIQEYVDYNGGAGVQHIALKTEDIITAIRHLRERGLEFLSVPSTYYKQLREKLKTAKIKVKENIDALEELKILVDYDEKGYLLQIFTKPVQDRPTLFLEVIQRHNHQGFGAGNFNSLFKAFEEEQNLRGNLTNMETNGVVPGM
`CCCCn1c(=O)n(C)c2ccc(C(=O)c3cnn(C)c3O)cc21`: the IC50 came to 170 nM.
In the case of `Cn1ncc(C(=O)c2ccc3c(c2)n(C(C)(C)C)c(=O)n3C)c1O`, the IC50 came out at 100 nM.
For the compound `Cc1ccc(-n2c(=O)n(C)c3ccc(C(=O)c4cnn(C)c4O)cc32)cc1`, the IC50 was found to be 250 nM.
For `CCCn1c(=O)n(CC)c2cc(C(=O)c3cnn(C)c3O)ccc21`, the IC50 was determined as 39 nM.
Next, `Cc1nn(C)c(O)c1C(=O)c1ccc2c(c1)n(CC(C)C)c(=O)n2C`: 2710 nM; `Cc1nn(C)c(O)c1C(=O)c1ccc2c(c1)n(Cc1ccccc1)c(=O)n2C`: 670 nM.

Broadly, the IC50 is the concentration that gives 50% inhibition.
